Measured values taken from patent US20230058316A1, “PEGYLATED IGE-DEPENDENT HISTAMINE-RELEASING FACTOR (HRF)-BINDING PEPTIDE AND USE THEREOF” (EWHA UNIVERSITY - INDUSTRY COLLABORATION FOUNDATION, priority 2020, published 2023).
Where no end group is shown, it is not given here.

Key:
recombinant HRF = target: T1, recombinant HRF (Homo sapiens, UniProt P13693); assay: Inhibition of IL-8 secretion by HRF in BEAS-2B cells; format: cell-based; conditions: FIG. 7; for inhibition of IL-8 secretion by HRF: 0.75 nM and 7.5 nM with 75 nM recombinant HRF, 24 hours
T1 sequence (P13693 1-172): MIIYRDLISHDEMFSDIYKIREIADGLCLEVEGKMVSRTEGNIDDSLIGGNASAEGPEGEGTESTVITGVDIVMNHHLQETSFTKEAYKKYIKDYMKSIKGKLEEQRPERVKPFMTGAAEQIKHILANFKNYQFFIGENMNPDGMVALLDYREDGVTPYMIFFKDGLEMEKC
Procedure: The PEG (5000)-dTBP2 prepared in Preparative Example 4, Example 1, and Example 2 was diluted with 1% penicillin streptomycin/DMEM for each concentration (0, 0.75 nM, 7.5 nM), incubated with 75 nM recombinant HRF at room temperature for 15 minutes, and then treated to BEAS-2B cells grown to about 70% on a 48 well plate. The cells were cultured in a 37° C., 5% CO2 incubator for 24 hours, and the supernatant was obtained. Then, the released IL-8 was quantified by enzyme immunosorbent detection (Biolegend). The IL-8 enzyme immunosorbent detection was performed according to the protocol of Biolegend Human IL-8 ELISA kit with pre coated plates (431508). 300 μl of wash buffer was added to each well of the plate pre-coated with the IL-8 antibody, and the plate was washed a total of 4 times. Then, 50 μl of the supernatant was added to each well of the plate and left at room temperature for 2 hours. After 2 hours, the supernatant in the plate was removed, and 300 μl of wash buffer was added to each well of the plate. The plate was washed a total of 4 times, and then 100 μl of a detection antibody solution was added to each well of the plate and left at room temperature for 1 hour. Thereafter, 300 μl of wash buffer was added to each well of the plate, and the plate was washed a total of 4 times. Then, 100 μl of Avidin-HRP A solution was added to each well of the plate and left at room temperature for 30 minutes. Finally, 300 μl of wash buffer was added to each well of the plate, and after washing the plate 5 times, 100 μl of substrate solution F was added to each well of the plate and left at room temperature in a dark room. 100 μl of a stop solution was additionally added to each well of the plate, and absorbance was measured at 450 nm and 570 nm. The wash buffer, detection antibody solution, avidin HRP A solution, substrate solution F, and stop solution were all used as reagents included in a kit (431508, Biolegend).

[1] = Metabolic stability in mouse liver microsomes; conditions: NADPH, 37° C., 30 minutes
Procedure: (§4) Upon completion of the reaction, cold acetonitrile containing internal standard was added, and then deproteinization was carried out. The reactant was centrifuged at 4° C., 4000 rpm for 15 minutes, and the supernatant was analyzed by LC-MS/MS. The system was verified with buspirone, a reference material.

[2] = Metabolic stability in human liver microsomes; conditions: pH 7.4
Procedure: as §4

[3] = system: eosinophils in bronchoalveolar lavage fluid; assay: Eosinophil increase in bronchoalveolar lavage fluid, ovalbumin-induced bronchial asthma and rhinitis mouse model; format: in vivo; conditions: 1 mg/kg IP, 8 times daily for 8 days, FIG. 9
Procedure: (§1) A bronchial asthma and rhinitis animal model was prepared by the following method. An ovalbumin solution was prepared by dissolving ovalbumin in an aluminum hydroxide solution (1 mg/ml) 28 and 14 days before the start of inducing bronchial asthma and rhinitis, and 200 μl of the solution was intraperitoneally injected into each mouse for sensitization. After 14 days of final sensitization, 20 μl of saline/PBS (normal control; NC) or 20 μl of 10 mg/mL ovalbumin solution (positive control; PC) was instilled into the nasal cavity of each lightly anesthetized mouse 4 times every other day for 8 days to induce bronchial asthma and rhinitis.
After anesthetizing the mouse by injecting a mixture of zoletil (250 mg/kg) and rompun (50 mg/kg) intraperitoneally, a 20-gauge catheter was inserted into the trachea by puncturing the trachea with a knife, and 0.6 mL of PBS at a time was injected-collected three times, and the collection rate was adjusted to 80%. The collected bronchoalveolar lavage fluid was centrifuged at 4° C., 3000 rpm for 10 minutes, and the cell precipitate was resuspended in 0.1 mL of PBS. 20 μL of the suspension was analyzed for the composition of blood cells using a fully automatic hematology analyzer (HEMAVET 950 FS, Drew Scientific, Inc.).

IL-5 = IL-5 secretion in bronchoalveolar lavage fluid, ovalbumin-induced bronchial asthma and rhinitis mouse model; format: in vivo; conditions: 1 mg/kg IP
Procedure: as §1
After the end of the experiment, the amount of IL-5 in the supernatant obtained by centrifuging bronchoalveolar lavage fluid was measured and quantified by enzyme immunosorbent detection using mouse IL-5 ELISA kit (Biolegend, USA).
(§2) Next, in order to confirm whether there is an effect of inhibiting IL-5 secretion even when administered in a small number of times, the dTBP2 of Preparative Example 4 and Example 3 was administered to the mouse model of Example 4-1 through intraperitoneal injection once in 4 days for a total of 2 times for 8 days inducing bronchial asthma and rhinitis. The amount of IL-5 was measured and quantified by the enzyme immunosorbent detection method in the same manner.
(§3) In addition, the dTBP2 of Preparative Example 4 and Example 3 was administered to the mouse model of Example 4-1 through intraperitoneal injection once on the 1st day of 8 days inducing bronchial asthma and rhinitis. The amount of IL-5 was measured and quantified by the enzyme immunosorbent detection method in the same manner.
The amount of IL-5 was measured and quantified by the enzyme immunosorbent detection method in the same manner.

IL-4 = IL-4 secretion in bronchoalveolar lavage fluid, ovalbumin-induced bronchial asthma and rhinitis mouse model; format: in vivo; conditions: 1 mg/kg IP
Procedure: as §1
After the end of the experiment, the amount of IL-4 in the supernatant obtained by centrifuging bronchoalveolar lavage fluid was measured and quantified by enzyme immunosorbent detection using mouse IL-4 ELISA kit (Biolegend, USA).
as §2, with “IL-4” for “IL-5”
as §3, with “IL-4” for “IL-5”
The amount of IL-4 was measured and quantified by the enzyme immunosorbent detection method in the same manner.

IL-13 = IL-13 secretion in bronchoalveolar lavage fluid, ovalbumin-induced bronchial asthma and rhinitis mouse model; format: in vivo; conditions: 1 mg/kg IP, 8 times daily for 8 days, FIG. 18
Procedure: as §1
After the end of the experiment, the amount of IL-13 in the supernatant obtained by centrifuging bronchoalveolar lavage fluid was measured and quantified by enzyme immunosorbent detection using mouse IL-13 ELISA kit (R&D system, USA).
as §2, with “IL-13” for “IL-5”
as §3, with “IL-13” for “IL-5”
The amount of IL-13 was measured and quantified by the enzyme immunosorbent detection method in the same manner.

ovalbumin-specific IgE = assay: Ovalbumin-specific IgE secretion in mouse plasma, ovalbumin-induced bronchial asthma and rhinitis mouse model; format: in vivo; conditions: plasma, 1 mg/kg IP, 8 times daily for 8 days
Procedure: as §1
Ovalbumin is an allergy-causing substance mainly contained in egg whites. […] After completion of the experiment, the mouse was anesthetized by injecting a mixture of zoletil (250 mg/kg) and rompun (50 mg/kg) intraperitoneally, and the chest was opened. 0.8 mL blood was collected by puncture of the heart with a 26 gauge 1 mL syringe coated with heparin. The collected blood was centrifuged at 4° C., 3000 rpm for 10 minutes to obtain plasma components. The amount of ovalbumin-specific IgE in the blood serum obtained through the above process was measured and quantified by enzyme immunosorbent detection method using mouse OVA specific IgE kit (Biolegend, USA).
as §2, with “inhibiting ovalbumin-specific IgE” for “inhibiting IL-5”, “secretion in plasma” for “secretion”, “of ovalbumin-specific IgE secretion” for “of IL-5”
as §3, with “ovalbumin-specific IgE secretion” for “IL-5”
The amount of ovalbumin-specific IgE secretion was measured and quantified by the enzyme immunosorbent detection method in the same manner.

[4] = Pharmacokinetic analysis in ICR mice; format: in vivo; conditions: mouse, plasma, IV, 10 mg/kg
Procedure: The dTBP2 of Preparative Examples 4 and Example 3 was added to a solution prepared in DMSO:PEG400:DW=5:55:40, and this was administered at the concentration of 5 mL/kg. Blood samples were taken at 0.083, 0.25, 0.5, 1, 2, 4, and 8 hours post injection. The blood was centrifuged at 4° C., 3000 rpm for 10 minutes, to which cold acetonitrile containing internal standard was added in an amount 4 times the plasma component, and then deproteinization was carried out. After centrifugation again at 4° C., 13000 rpm for 10 minutes, the supernatant was collected and analyzed by Agilent 6460 LC-MS/MS. Pharmacokinetic analysis was performed with Phoenix WinNonlin (Pharsight ver 6.4, USA) using a non-compartmental analysis model.

## Methoxy polyethylene glycol propionaldehyde (5000) [Preparative Example 1]
Recombinant HRF
  inhibition of IL-8 secretion by HRF: effective

## Example 1: dTBP2 (WYVYPSM) conjugated at the N-terminal with methoxy polyethylene glycol propionaldehyde (5 kDa) ({mPEG propionaldehyde 5 kDa}-WYVYPSM)
Recombinant HRF
  inhibition of IL-8 secretion by HRF: effective
  inhibitory effect on the IL-8 secretion by HRF, comparison among the tested peptides: best

## O=C1CC2(CCCC2)CC(=O)N1CCCCN1CCN(c2ncccn2)CC1 [Buspirone, buspirone]
[1]
  Mouse (%) remaining after reaction: 0.10%
[2]
  remaining at 0.5 h: 6.15%

## WYVYPSM [Preparative Example 4, WYVYPSM, reference compound]
[3]
  reduction of increased eosinophils vs positive control: about 40%
IL-5; 8 times daily for 8 days, FIG. 10
  reduction of IL-5 secretion: about 25%
IL-5; once on the 5th day of 8 days, FIG. 13
  IL-5 secretion inhibitory effect: weak
IL-4; 8 times daily for 8 days, FIG. 14
  reduction of IL-4 secretion: about 50%
IL-4; once on the 5th day of 8 days, FIG. 17
  IL-4 secretion inhibitory effect: weak
IL-13
  reduction of IL-13 secretion: about 30%
ovalbumin-specific IgE
  inhibiting ovalbumin-specific IgE secretion in plasma (in words): very effective
ovalbumin-specific IgE; FIG. 22
  reduction of ovalbumin-specific IgE secretion: about 50%
[4]
  AUC(0-inf): 30 ng·h/mL
  AUC(0-t): 20 ng·h/mL
[4]; read-out: T1/2 (half life) (converted)
  half-life: 1.91 h
[4]; read-out: Vss (steady-state volume of distribution)
  Vd: 783 L/kg

## Example 2: dTBP2 (WYVYPSM) conjugated at the C-terminal with methoxy polyethylene glycol hydrazide (5 kDa) (WYVYPSM-{mPEG hydrazide 5 kDa})
Recombinant HRF
  inhibition of IL-8 secretion by HRF: effective
